Values of other authors in publication PMC10386743, “Application of Ligand- and Structure-Based Prediction Models for the Design of Alkylhydrazide-Based HDAC3 Inhibitors as Novel Anti-Cancer Compounds” (Pharmaceuticals, 2023).

Tested on: HDAC3
Conditions: experimentally determined

SMILES | activity on HDAC3 (in words)
CCCNNC(=O)c1ccc(CNC(C)=O)cc1 [Compound 68] | moderate activity

Same assay, conditions: newly designed compounds

SMILES | pIC50 HDAC3 (HDAC3 experimental pIC50)
CCCCCNNC(=O)c1ccc(-c2ccc(CNC(C)=O)cc2)cc1 [Compound 66] | 5.82
CCCCNNC(=O)c1cnc(NCc2ccccc2)nc1 [Compound 73] | 6.70
CCCNNC(=O)c1cnc(NCc2ccccc2Cl)nc1 [Compound 76] | 7.22
CCCNNC(=O)c1ccc(CNC(C)=O)cc1 [Compound 68] | 5.80
CCCCCCNNC(=O)c1cnc(NCCc2ccccc2)nc1 [Compound 82] | <5.00
CCCCCCNNC(=O)c1cnc(N2CCN(Cc3c[nH]c4ccccc34)CC2)nc1 [Compound 86] | 7.00
CCCNNC(=O)c1cnc(NCc2ccc(Cl)cc2)nc1 [Compound 77] | 7.43
CCCNNC(=O)c1cnc(N2CCN(C)CC2)nc1 [Compound 79] | 6.92
CCCCNNC(=O)c1ccc(-c2ccc(CNC(C)=O)cc2)cc1 [Compound 65] | 6.46
